Results from US5773423A (priority 1994, dated 1998).
Where two headings read alike, the source gives them in different places.

Key:
[1] = biological target: T1, A2 receptors from rat striatal membranes (Rattus norvegicus, UniProt P30543); test: Radioligand binding at A2 (A2a) receptors, displacement of [3H]CGS 21680 (or [3H]NECA with 50 nM CPA) from rat striatal membranes
T1 construct: Rat cerebral cortical and striatal membranes were prepared; from tissue; host or cells: rat striatal membranes
T1 sequence (P30543 whole entry): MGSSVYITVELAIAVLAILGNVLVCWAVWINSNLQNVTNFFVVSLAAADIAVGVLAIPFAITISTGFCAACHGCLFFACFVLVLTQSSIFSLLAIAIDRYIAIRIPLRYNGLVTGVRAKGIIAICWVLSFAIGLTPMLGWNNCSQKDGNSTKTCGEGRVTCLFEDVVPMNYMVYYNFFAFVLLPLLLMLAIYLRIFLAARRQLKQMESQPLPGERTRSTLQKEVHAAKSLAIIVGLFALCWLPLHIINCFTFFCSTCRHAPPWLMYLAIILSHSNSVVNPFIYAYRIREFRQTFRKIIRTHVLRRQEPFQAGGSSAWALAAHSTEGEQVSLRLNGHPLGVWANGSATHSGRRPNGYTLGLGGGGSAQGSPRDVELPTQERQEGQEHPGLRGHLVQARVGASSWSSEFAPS

[2] = biological target: T2, A1 receptors from rat brain membranes (Rattus norvegicus, UniProt P25099); test: biochemical; type: binding; settings: for inhibition at 100 µM: read-out: A1 percent displacement
T2 construct: Rat cerebral cortical and striatal membranes were prepared; from tissue; host or cells: rat brain (cerebral cortical) membranes
T2 sequence (P25099 1-326): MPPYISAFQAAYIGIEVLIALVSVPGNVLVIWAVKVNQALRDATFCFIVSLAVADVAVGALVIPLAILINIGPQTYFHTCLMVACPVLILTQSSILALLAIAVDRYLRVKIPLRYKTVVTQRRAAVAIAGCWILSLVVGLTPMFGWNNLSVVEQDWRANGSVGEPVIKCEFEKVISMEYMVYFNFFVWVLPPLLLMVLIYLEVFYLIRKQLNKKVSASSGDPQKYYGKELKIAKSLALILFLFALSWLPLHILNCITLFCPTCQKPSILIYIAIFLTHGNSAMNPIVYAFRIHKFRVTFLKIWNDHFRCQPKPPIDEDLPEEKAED

[3] = rat striatal membranes, displacement of [3H]CGS 21680 (or [3H]NECA + 50 nM CPA), read-out: A2 affinity Ki
[4] = rat brain membranes, displacement of [3H]PIA (or [3H]CHA), read-out: A1 affinity Ki
[5] = at 100 μM, read-out: A2 percent displacement
[6] = read-out: A2 percent displacement
[7] = read-out: percent displacement of radioligand at A2
[8] = Table 4, [3H]PIA, rat brain membranes, read-out: Ki (A1)
[9] = Table 4, [3H]CGS 21680, rat striatal membranes, read-out: Ki (A2)

| Structure (SMILES) | Ki [1, 3] [µM] | Ki [2, 4] [µM] | inhibition at 100 µM ([2]; at 100 μM) [%] | inhibition at 100 µM [1, 6] [%] | also measured |
| --- | --- | --- | --- | --- | --- |
| CCNC(=O)[C@H]1O[C@@H](n2cnc3c(NCc4cccc(I)c4)ncnc32)[C@H](O)[C@@H]1O [Compound 60, N^6-(3-iodobenzyl)-NECA] | 0.0072 ± 0.0006 | 0.0077 ± 0.0009 | – | – | – |
| CCNC(=O)[C@H]1O[C@@H](n2cnc3c(NCc4ccccc4[N+](=O)[O-])ncnc32)[C@H](O)[C@@H]1O [Compound 61, N^6-(2-nitrobenzyl)adenosine-5'-N-ethyluronamide] | 0.024 ± 0.003 | 0.031 ± 0.004 | – | – | – |
| CCNC(=O)[C@H]1O[C@@H](n2cnc3c(NCc4cccc([N+](=O)[O-])c4)ncnc32)[C@H](O)[C@@H]1O [Compound 62, N^6-(3-nitrobenzyl)-NECA] | 0.035 ± 0.007 | 0.078 ± 0.01 | – | – | – |
| CCNC(=O)[C@H]1O[C@@H](n2cnc3c(NCc4cccc(C)c4)ncnc32)[C@H](O)[C@@H]1O [Compound 64, N^6-(3-methylbenzyl)-NECA] | 0.0177 ± 0.0018 | 0.0365 ± 0.0012 | – | – | – |
| CCNC(=O)[C@H]1O[C@@H](n2cnc3c(NCc4ccccc4OC)ncnc32)[C@H](O)[C@@H]1O [Compound 65, N^6-(2-methoxybenzyl)-NECA] | 0.021 ± 0.003 | 0.052 ± 0.005 | – | – | – |
| CCNC(=O)[C@H]1O[C@@H](n2cnc3c(NCc4cccc(OC)c4)ncnc32)[C@H](O)[C@@H]1O [Compound 66, N^6-(3-methoxybenzyl)-NECA] | 0.038 ± 0.006 | 0.069 ± 0.008 | – | – | – |
| CCNC(=O)[C@H]1O[C@@H](n2cnc3c(NCc4ccc(OC)cc4)ncnc32)[C@H](O)[C@@H]1O [Compound 67, N^6-(4-methoxybenzyl)adenosine-5'-N-ethyluronamide] | 0.609 ± 0.034 | 0.209 ± 0.03 | – | – | – |
| Nc1ncnc2c1ncn2[C@H]1C[C@H](O)[C@@H](CO)O1 [Compound 70, 2'-deoxyadenosine, reference compound] | – | – | 30.9 ± 8 | – | inhibition at 100 µM [1, 5]: 38.9 ± 2.9% |
| CO[C@@H]1[C@H](O)[C@@H](CO)O[C@H]1n1cnc2c(N)ncnc21 [Compound 71, 2'-O-methyladenosine, reference compound] | – | – | 29.4 ± 7.5 | – | inhibition at 100 µM [1, 5]: 49 ± 5% |
| Nc1ncnc2c1ncn2[C@@H]1O[C@H](CO)C[C@H]1O [Compound 72, 3'-deoxyadenosine, reference compound] | – | – | 5.8 ± 2.8 | – | inhibition at 100 µM [1, 5]: 26.3 ± 3.4% |
| C[C@H]1O[C@@H](n2cnc3c(N)ncnc32)[C@H](O)[C@@H]1O [Compound 73, 5'-deoxyadenosine, reference compound] | 0.596 ± 0.054 | 0.269 ± 0.135 | – | – | – |
| CC(C)CSC[C@H]1O[C@@H](n2cnc3c(N)ncnc32)[C@H](O)[C@@H]1O [Compound 76, 5'-deoxy-5'-isobutylthio adenosine, reference compound] | 6.89 | 1.14 | – | – | – |
| Nc1ncnc2c1ncn2[C@@H]1O[C@H](COP(=O)(O)O)[C@@H](O)[C@H]1O [Compound 78, adenosine-5'-monophosphate, reference compound] | – | – | – | 57.5 ± 4 | Ki [2]: 47.5 ± 6.5 µM |
| Nc1ncnc2c1ncn2[C@]1(CO)O[C@H](CO)[C@@H](O)[C@H]1O [Compound 80, β-D-psicofuranosyladenine, reference compound] | – | – | – | – | inhibition at 100 µM [1, 5]: 51.5 ± 7.4%; inhibition at 100 µM [2]: 36.1 ± 4.9% |
| O=c1ccn([C@@H]2O[C@H](CO)[C@@H](O)[C@H]2O)c(=O)[nH]1 [Compound 82, uridine, reference compound] | – | – | 14.3 ± 6.9 | 2.8 ± 5.2 | – |
| Cc1cn([C@H]2C[C@H](O)[C@@H](CO)O2)c(=O)[nH]c1=O [Compound 83, thymidine, reference compound] | – | – | 23.4 ± 2.5 | 1.7 ± 3.4 | – |
| CCNC(=O)[C@H]1O[C@@H](n2cnc3c(=O)[nH]cnc32)[C@H](O)[C@@H]1O [Compound 91, inosine-5'-N-ethyluronamide] | – | – | – | 30.6 ± 2.3 | IC50 [1]: > 100 µM; IC50 [2]: > 100 µM; inhibition at 100 µM [2]: 43.7 ± 10.3% |
| Cn1c(=O)c2c(ncn2[C@@H]2O[C@H](CO)[C@@H](O)[C@H]2O)n(C)c1=O [Compound 117, theophylline-7-riboside, reference compound] | – | – | – | – | inhibition at 100 µM [1, 7]: 2%; Ki [2, 8]: 27 µM |
| CCCCn1c(=O)c2c(ncn2[C@@H]2O[C@H](C(=O)OC)[C@@H](O)[C@H]2O)n(CCCC)c1=O [Compound 122, methyl 1,3-di-n-butylxanthine-7-β-D-ribofuronate] | – | – | – | – | inhibition at 3 µM [1, 7]: 0%; Ki [2, 8]: 3.72 µM |

Further lines, with some results ahead:

| Ki [1, 3] [µM] | Ki [2, 4] [µM] | inhibition at 100 µM ([2]; at 100 μM) [%] | inhibition at 100 µM [1, 6] [%] | Structure (SMILES) | also measured |
| --- | --- | --- | --- | --- | --- |
| – | – | 9.1 ± 2.4 | – | O=c1[nH]c(=O)c2ncn([C@@H]3O[C@H](CO)[C@@H](O)[C@H]3O)c2[nH]1 [Compound 81, xanthosine, reference compound] | inhibition at 100 µM [1, 5]: 8.5 ± 2.5% |
| – | – | – | 16 ± 1.5 | Nc1ccn([C@@H]2O[C@H](CO)[C@@H](O)[C@H]2O)c(=O)n1 [Compound 84, cytidine, reference compound] | inhibition at 100 µM [2]: 18 ± 1.2% |
| 50 | 16.7 | – | – | OC[C@H]1O[C@@H](n2cnc3c(O)ncnc32)[C@H](O)[C@@H]1O [Compound 85, inosine, reference compound] | – |
| 8.5 | 27.8 | – | – | Nc1nc2c(ncn2[C@@H]2O[C@H](CO)[C@@H](O)[C@H]2O)c(=O)[nH]1 [Compound 86, guanosine, reference compound] | – |
| 48.5 | 15 | – | – | Nc1nc(SCc2ccc([N+](=O)[O-])cc2)c2ncn([C@@H]3O[C@H](CO)[C@@H](O)[C@H]3O)c2n1 [Compound 87, (4-nitrobenzyl)-6-thioguanosine, reference compound] | – |
| – | – | 44.2 ± 2.3 | – | Nc1nc2c(ncn2[C@@H]2O[C@H](CO)[C@@H](O)[C@H]2O)c(=S)[nH]1 [Compound 88, 6-thioguanosine, reference compound] | inhibition at 100 µM [1, 5]: 27.7 ± 5.8% |
| – | – | 61.2 ± 3.9 | 33.6 ± 3.3 | OC[C@H]1O[C@@H](n2cnc3c(=S)[nH]cnc32)[C@H](O)[C@@H]1O [Compound 89, 6-thiopurine riboside, reference compound] | – |
| – | – | 0 | 6.2 ± 4.2 | CNC(=O)[C@H]1O[C@@H](n2cnc3c(=O)[nH]cnc32)[C@H](O)[C@@H]1O [Compound 90, inosine-5'-N-methyluronamide] | – |
| – | – | 52.3 ± 7.9 | 37.7 ± 4.9 | Cn1cnc2[nH]c(=O)[nH]c(=O)c21 [Compound 101, 7-methylX, reference compound] | – |
| – | – | 29.4 ± 1.6 | 6 ± 6.3 | Cn1c(=O)[nH]c2c(ncn2C)c1=O [Compound 105, 1,9-dimethylX, reference compound] | – |
| – | – | 19.7 ± 7.9 | 4.2 ± 5.9 | Cn1cnc2c(=O)[nH]c(=O)n(C)c21 [Compound 107, 3,9-dimethylX, reference compound] | – |
| – | 1.26 | – | – | CCCCCCn1c(=O)c2[nH]cnc2n(CCCCCC)c1=O [Compound 110, 1,3-dihexylX, reference compound] | inhibition at 10 µM [1, 6]: 14.3 ± 3% |
| 32.5 | 26.1 | – | – | CCCn1c(=S)[nH]c(=O)c2[nH]cnc21 [Compound 114, 2-thio-3-propylX, reference compound] | – |
| – | 15.9 | – | 32 ± 1.1 | CCCn1c(=O)c2c(ncn2[C@@H]2O[C@H](CO)[C@@H](O)[C@H]2O)n(CCC)c1=O [Compound 118, 1,3-di-n-propylxanthine-7-β-D-ribofuranoside, reference compound] | inhibition at 100 µM [1, 7]: 32% |
| 19.5 | 4.19 | – | – | CCCCn1c(=O)c2c(ncn2[C@@H]2O[C@H](CO)[C@@H](O)[C@H]2O)n(CCCC)c1=O [Compound 119, 1,3-di-n-butylxanthine-7-β-D-ribofuranoside] | – |
| 3.8 | – | – | – | CCCCn1c(=O)n(Cc2ccccc2)c(=O)c2c1ncn2[C@@H]1O[C@H](CO)[C@@H](O)[C@H]1O [Compound 120, 1-benzyl-3-butylxanthine-7-β-D-ribofuranoside] | Ki [1, 9]: 8.67 µM; potency increase at A1 and A2a receptors vs 1,3-di-n-butylxanthine-7-β-D-ribofuranoside [2]: 2-4 fold; Ki [2, 8]: 2.19 µM |
| 4.51 | – | – | – | CCCCn1c(=O)c2c(ncn2[C@@H]2O[C@H](CO)[C@@H](O)[C@H]2O)n(Cc2ccccc2)c1=O [Compound 121, 3-benzyl-1-butylxanthine-7-β-D-ribofuranoside] | Ki [1, 9]: 4.51 µM; potency increase at A1 and A2a receptors vs 1,3-di-n-butylxanthine-7-β-D-ribofuranoside ([2]; A1 and A2a receptors): 2-4 fold; Ki [2, 8]: 1.72 ± 0.03 µM |
| 59.2 | 2.94 | – | – | CCCCn1c(=O)c2c(ncn2[C@@H]2O[C@H](C(N)=O)[C@@H](O)[C@H]2O)n(CCCC)c1=O [Compound 123, 1,3-di-n-butylxanthine-7-β-D-ribofuronamide] | – |
| 17 | 7.5 | – | – | CCCCn1c(=O)c2c(ncn2[C@@H]2O[C@H](C(=O)NCC)[C@@H](O)[C@H]2O)n(CCCC)c1=O [Compound 126, N-ethyl 1,3-di-n-butylxanthine-7-β-D-ribofuronamide] | – |
| 48.7 | 0.226 ± 0.037 | – | – | CCCn1c(=O)[nH]c2nc(C3CCCC3)[nH]c2c1=O [Compound 129, 8-cyclopentyl-1-propylX, reference compound] | – |
| – | – | 30.2 ± 6.7 | 24.7 ± 3.9 | Cn1c(=O)c2[nH]c(Cl)nc2n(C)c1=O [Compound 132, 8-chloroT, reference compound] | – |
